Key:
Experiment in all cases: Biomarker study proliferation (CellTiter-Glo)
Assay type in all cases: cell-based
T47D = system: T47D
Description: (§1) Cancer cell lines are profiled to evaluate the anti-proliferative activity of a test compound in-vitro. Mutation, copy number and gene expression information of ARID1A, KMT2C, KMT2D and/or RB1 genes across cancer cell lines is obtained from COSMIC database (cancer.sanger.ac.uk) and cBioportal (http://www.cbioportal.org/). Cells are cultured in growth medium and plated into a 96-well plate in 100 μL/well growth medium at 5000 cells/well then incubated at 37° C., 5% CO2 overnight. Cells are cultured using supplier recommended media and conditions well known in the art, for example with RPMI 1640 with or without HEPES & L-Glutamine (Thermo SH30255.01) and 1 mM Sodium Pyruvate, and 10% FBS(Gibco cat #10082). The 1000× intermediate dilution plate is prepared by making a 10 mM working solution of a test sample in DMSO and performing 1:3 dilutions in DMSO for 10 points. The 10× dosing plate is prepared by adding 2 μL from the 1000× intermediate dilution plate to 198 μL of OPTIMEM®+10% FBS and mixing well. The cell plate is then treated by adding 11 μL from the 10× dosing plate into the 100 μL/well cell plate for a 1× final concentration. Staurosporine is used as a maximum growth inhibition control at a final concentration of 5 μM. The cell plate is incubated for 7 days at 37° C., 5% CO2. Seven days after treatment, Cell Titer-Glo® (Promega cat #G7571) assay buffer and substrate are removed from −20° C. and allowed to equilibrate to RT. Assay buffer is added to the substrate and swirled gently to mix. The CELL TITER-GLO® reagent (100 μL/well) is added to the cell plate and incubated at RT for 15 minutes. After 15 minutes, luminescence is read using a plate reader. Data is analyzed in Excel and graphed in GraphPad Prism. Statistical analysis and p value is calculated using Mann-Whitney nonparameteric t tests using GraphPad Prism.
(§2) Anti-proliferative effects of a test compound are categorized as insensitive (IC50≥1 μM), cytostatic (IC50<1 μM and % inhibition <70%) or cytotoxic (IC50<1 μM and % inhibition ≥70%).

PANC1 = system: PANC1
Description: as §1, §2

HCC827 = system: HCC827
Description: as §1, §2

SJRH30 = system: SJRH30
Description: as §1, §2

MDAMB157 = system: MDAMB157
Description: as §1, §2

HCC70 = system: HCC70
Description: as §1, §2

SNU5 = system: SNU5
Description: as §1, §2

NCIH526 = system: NCIH526
Description: as §1, §2

HEC108 = system: HEC108
Description: as §1, §2

HUH7 = system: HUH7
Description: as §1, §2

MKN45 = system: MKN45
Description: as §1, §2

SH10TC = system: SH10TC
Description: as §1, §2

MDAPCA2B = system: MDAPCA2B
Description: as §1, §2

NCIH1975 = system: NCIH1975
Description: as §1, §2

UMUC3 = system: UMUC3
Description: as §1, §2

GL261 = system: GL261
Description: as §1, §2

SHSY5Y = system: SHSY5Y
Description: as §1, §2

DMS79 = system: DMS79
Description: as §1, §2

For `Cc1cc(NC2CCN(C(=O)O[C@H]3CCN(C(=O)/C=C/CN(C)C)C3)CC2)n2ncc(C(C)C)c2n1` [Example 1, [(3S)-1-[(E)-4-(dimethylamino)but-2-enoyl]pyrrolidin-3-yl] 4-[(3-isopropyl-5-methyl-pyrazolo[1,5-a]pyrimidin-7-yl)amino]piperidine-1-carboxylate], which “Anti-proliferation effect % Inh.” value (T47D; BREAST, 7 days) is on record?
The value was 68%.

And the “Anti-proliferation effect Outcome” value (T47D; BREAST, 7 days)?
Its value is “Cytostatic (cytostatic (IC50<1 μM and % inhibition <70%))”.

And the IC50 (T47D; Homo sapiens, 168 h, read-out: Anti-proliferation effect IC50)?
The IC50 was 45 nM.

And the IC50 (PANC1; Homo sapiens, PANC-1, 168 h, read-out: Anti-proliferation effect IC50)?
Its IC50 is 71 nM.

And the “Anti-proliferation effect % Inh.” value (PANC1; PANC1, PANCREAS, 7 days)?
The value was 47%.

What about the “Anti-proliferation effect Outcome” value (PANC1; PANC1, PANCREAS, 7 days) of the same compound?
The value was “Cytostatic (cytostatic (IC50<1 μM and % inhibition <70%))”.

And the “Anti-proliferation effect % Inh.” value (HCC827; HCC827, LUNG, 7 days)?
The value was 69%.

What about the “Anti-proliferation effect Outcome” value (HCC827; HCC827, LUNG, 7 days) of the same compound?
The value was “Cytostatic (cytostatic (IC50<1 μM and % inhibition <70%))”.

And the IC50 (HCC827; Homo sapiens, HCC827, 168 h, read-out: Anti-proliferation effect IC50)?
The IC50 was 55 nM.

What about the IC50 (SJRH30; Homo sapiens, SJRH30, 168 h, read-out: Anti-proliferation effect IC50) of the same compound?
Its IC50 is 39 nM.

What about the “Anti-proliferation effect % Inh.” value (SJRH30; SJRH30, SOFT TISSUE, 7 days) of the same compound?
The value was 62%.

And the “Anti-proliferation effect Outcome” value (SJRH30; SJRH30, SOFT TISSUE, 7 days)?
Its value is “Cytostatic (cytostatic (IC50<1 μM and % inhibition <70%))”.

And the IC50 (MDAMB157; Homo sapiens, MDA-MB-157, 168 h, read-out: Anti-proliferation effect IC50)?
The IC50 was 866 nM.

What about the “Anti-proliferation effect % Inh.” value (MDAMB157; MDAMB157, BREAST, 7 days) of the same compound?
The value was 39%.

What about the “Anti-proliferation effect Outcome” value (MDAMB157; MDAMB157, BREAST, 7 days) of the same compound?
Its value is “Cytostatic (cytostatic (IC50<1 μM and % inhibition <70%))”.

And the “Anti-proliferation effect % Inh.” value (HCC70; HCC70, BREAST, 7 days)?
Its value is 89%.

What about the “Anti-proliferation effect Outcome” value (HCC70; HCC70, BREAST, 7 days) of the same compound?
Its value is “Cytotoxic (cytotoxic (IC50<1 μM and % inhibition ≥70%))”.

And the IC50 (HCC70; Homo sapiens, HCC70, 168 h, read-out: Anti-proliferation effect IC50)?
The IC50 was 38 nM.

And the IC50 (SNU5; Homo sapiens, SNU-5, 168 h, read-out: Anti-proliferation effect IC50)?
The IC50 was 39 nM.

What about the “Anti-proliferation effect % Inh.” value (SNU5; SNU5, STOMACH, 7 days) of the same compound?
The value was 79%.

And the “Anti-proliferation effect Outcome” value (SNU5; SNU5, STOMACH, 7 days)?
The value was “Cytotoxic (cytotoxic (IC50<1 μM and % inhibition ≥70%))”.

What about the IC50 (NCIH526; Homo sapiens, NCI-H526, 168 h, read-out: Anti-proliferation effect IC50) of the same compound?
The IC50 was 18 nM.

And the “Anti-proliferation effect % Inh.” value (NCIH526; NCIH526, LUNG, 7 days)?
Its value is 94%.

What about the “Anti-proliferation effect Outcome” value (NCIH526; NCIH526, LUNG, 7 days) of the same compound?
Its value is “Cytotoxic (cytotoxic (IC50<1 μM and % inhibition ≥70%))”.

What about the IC50 (HEC108; 168 h, read-out: Anti-proliferation effect IC50) of the same compound?
The IC50 was 31 nM.

What about the “Anti-proliferation effect % Inh.” value (HEC108; HEC108, ENDOMETRIUM, 7 days) of the same compound?
Its value is 90%.

And the “Anti-proliferation effect Outcome” value (HEC108; HEC108, ENDOMETRIUM, 7 days)?
The value was “Cytotoxic (cytotoxic (IC50<1 μM and % inhibition ≥70%))”.

What about the “Anti-proliferation effect % Inh.” value (HUH7; HUH7, LIVER, 7 days) of the same compound?
Its value is 64%.

And the “Anti-proliferation effect Outcome” value (HUH7; HUH7, LIVER, 7 days)?
Its value is “Cytostatic (cytostatic (IC50<1 μM and % inhibition <70%))”.

What about the IC50 (HUH7; Homo sapiens, Huh-7, 168 h, read-out: Anti-proliferation effect IC50) of the same compound?
The IC50 was 175 nM.

And the IC50 (MKN45; Homo sapiens, MKN-45, 168 h, read-out: Anti-proliferation effect IC50)?
Its IC50 is 56 nM.

What about the “Anti-proliferation effect % Inh.” value (MKN45; MKN45, STOMACH, 7 days) of the same compound?
Its value is 79%.

What about the “Anti-proliferation effect Outcome” value (MKN45; MKN45, STOMACH, 7 days) of the same compound?
The value was “Cytotoxic (cytotoxic (IC50<1 μM and % inhibition ≥70%))”.

What about the “Anti-proliferation effect % Inh.” value (SH10TC; SH10TC, STOMACH, 7 days) of the same compound?
The value was 58%.

And the “Anti-proliferation effect Outcome” value (SH10TC; SH10TC, STOMACH, 7 days)?
The value was “Cytostatic (cytostatic (IC50<1 μM and % inhibition <70%))”.

What about the IC50 (SH10TC; SH-10-TC, 168 h, read-out: Anti-proliferation effect IC50) of the same compound?
The IC50 was 147 nM.

And the IC50 (MDAPCA2B; MDA-PCa-2b, 168 h, read-out: Anti-proliferation effect IC50)?
Its IC50 is 6.27 µM.

And the “Anti-proliferation effect % Inh.” value (MDAPCA2B; MDAPCA2B, PROSTATE, 7 days)?
The value was 17%.

And the “Anti-proliferation effect Outcome” value (MDAPCA2B; MDAPCA2B, PROSTATE, 7 days)?
The value was “Insensitive (insensitive (IC50≥1 μM))”.

What about the IC50 (NCIH1975; Homo sapiens, NCI-H1975, 168 h, read-out: Anti-proliferation effect IC50) of the same compound?
The IC50 was 21 nM.

What about the “Anti-proliferation effect % Inh.” value (NCIH1975; NCIH1975, LUNG, 7 days) of the same compound?
The value was 90%.

What about the “Anti-proliferation effect Outcome” value (NCIH1975; NCIH1975, LUNG, 7 days) of the same compound?
The value was “Cytotoxic (cytotoxic (IC50<1 μM and % inhibition ≥70%))”.

And the IC50 (UMUC3; Homo sapiens, UMUC3, 168 h, read-out: Anti-proliferation effect IC50)?
Its IC50 is 161 nM.

And the “Anti-proliferation effect % Inh.” value (UMUC3; UMUC3, URINARY, 7 days)?
Its value is 70%.

What about the “Anti-proliferation effect Outcome” value (UMUC3; UMUC3, URINARY, 7 days) of the same compound?
The value was “Cytotoxic (cytotoxic (IC50<1 μM and % inhibition ≥70%))”.

What about the “Anti-proliferation effect % Inh.” value (GL261; GL261, BRAIN, 7 days) of the same compound?
Its value is 85%.

And the “Anti-proliferation effect Outcome” value (GL261; GL261, BRAIN, 7 days)?
Its value is “Cytotoxic (cytotoxic (IC50<1 μM and % inhibition ≥70%))”.

What about the IC50 (GL261; Mus musculus, GL261, 168 h, read-out: Anti-proliferation effect IC50) of the same compound?
Its IC50 is 38 nM.

And the IC50 (SHSY5Y; Homo sapiens, SH-SY5Y, 168 h, read-out: Anti-proliferation effect IC50)?
The IC50 was 59 nM.

What about the “Anti-proliferation effect % Inh.” value (SHSY5Y; SHSY5Y, CNS, 7 days) of the same compound?
Its value is 95%.

What about the “Anti-proliferation effect Outcome” value (SHSY5Y; SHSY5Y, CNS, 7 days) of the same compound?
Its value is “Cytotoxic (cytotoxic (IC50<1 μM and % inhibition ≥70%))”.

What about the “Anti-proliferation effect % Inh.” value (DMS79; DMS79, LUNG, 7 days) of the same compound?
Its value is 50%.

What about the “Anti-proliferation effect Outcome” value (DMS79; DMS79, LUNG, 7 days) of the same compound?
Its value is “Cytostatic (cytostatic (IC50<1 μM and % inhibition <70%))”.

And the IC50 (DMS79; Homo sapiens, DMS-79, 168 h, read-out: Anti-proliferation effect IC50)?
The IC50 was 354 nM.
